Results on two compounds are retold here after ChEMBL document CHEMBL4229539, “Characterization of crystal water molecules in a high-affinity inhibitor and hematopoietic prostaglandin D synthase complex by interaction energy studies” (Bioorg Med Chem, 2018).

This experiment deals with Hematopoietic prostaglandin D synthase (Homo sapiens, UniProt O60760). In words: Binding affinity to full length recombinant human N-terminal His6-tagged H-PGDS expressed in Escherichia coli BL21(DE3) by SPR analysis. (SPR reads the build-up and loss of mass on a sensor chip optically.)
Sequence of Hematopoietic prostaglandin D synthase (O60760 whole entry): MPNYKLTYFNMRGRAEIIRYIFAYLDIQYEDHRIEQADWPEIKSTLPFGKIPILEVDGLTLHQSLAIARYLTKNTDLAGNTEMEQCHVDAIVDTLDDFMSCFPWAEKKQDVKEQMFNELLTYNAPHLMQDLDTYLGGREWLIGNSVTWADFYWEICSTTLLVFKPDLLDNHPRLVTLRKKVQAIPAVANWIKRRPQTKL

The Kd is the free concentration of one partner at which half of the binding sites on the other are occupied at equilibrium, for simple one-to-one binding. With `O=C(Nc1ccc(N2CCCC2=O)cc1)c1cnc(-c2ccccn2)nc1`, the Kd came to 0.14 nM. The same measure for `O=C(Nc1ccc(N2CCC(C(=O)N3CCOCC3)CC2)cc1)c1cnc(Oc2ccccc2)nc1`: 0.37 nM.
